Values of other authors as cited in US20230117397A1, “PIRFENIDONE FOR CORONAVIRUS TREATMENT” (Excalibur Pharmaceuticals, Inc., priority 2020, published 2023).
Like-named read-outs stand apart in the source and are kept apart here.

Experiments:
[1] = major urinary metabolite of pirfenidone
TNF-α [2] = conditions: pretreatment 5 minutes before LPS
IL-12 = conditions: pirfenidone pre-treatment before LPS
IFN-γ [3] = conditions: pirfenidone pre-treatment before LPS
IL-10 [4] = conditions: pirfenidone pre-treatment; by 3 hours
endotoxic shock = conditions: for survival: pretreatment 15 minutes before LPS
TNF-α [5] = tested on: TNF-α
TNF-α [6] = conditions: pirfenidone added after cell stimulation with endotoxin
IFN-γ [7] = conditions: pirfenidone added after cell stimulation with endotoxin
TNF-α [8] = conditions: once daily 50 mg/kg/day or 100 mg/kg/day; dose dependent
IL-10 [9] = conditions: once daily 50 mg/kg/day or 100 mg/kg/day; dose dependent
IL-6 = conditions: once daily 50 mg/kg/day or 100 mg/kg/day; dose dependent
[10] = tested on: silicosis (intratracheal silica slurry)
[11] = MALDI-FTICR MSI
[12] = not given; remark: listed apart in the source
[13] = oral, healthy adults
[14] = not given; remark: listed apart in the source

O=C(O)c1ccc(=O)n(-c2ccccc2)c1 [5-carboxy-pirfenidone]
biological activity [1]: limited to no biological activity

Cc1ccc(=O)n(-c2ccccc2)c1 [pirfenidone, 5-methyl-1-phenyl-2-(1H)-pyridone]
TNF-α levels suppressed (TNF-α [2]): 97% | IL-12 suppressed (IL-12): 84% | IFN-γ inhibited (IFN-γ [3]): 91% | IL-10 expression enhanced (IL-10 [4]): approximately 27 fold | survival (endotoxic shock; 100 mg/kg, 4/8): 50% | survival (endotoxic shock; 500 mg/kg, 8/8): 100% | protection from death (endotoxic shock; pretreatment 3 hours before LPS): partial protection | protection from death (endotoxic shock; pretreatment 6 hours or more before LPS): none | survived (survivors/animals) (endotoxic shock; single oral dose 1 hour after LPS): 5/5 | survived (survivors/animals) (endotoxic shock; single oral dose 3 hours after LPS): 4/5 | survived (survivors/animals) (endotoxic shock; single oral dose 5 hours after LPS): 1/5 | TNF-α expression (TNF-α [5]; 200 mg/kg immediately after LPS): inhibited | TNF-α expression inhibited (TNF-α [5]; 200 mg/kg, 30 or 60 minutes before or after LPS): not | levels of secreted TNF-α protein (TNF-α [6]): significantly decrease | steady state levels of TNF-α RNA (TNF-α [6]): did not change | levels of secreted IFN-γ protein (IFN-γ [7]): significantly decrease | steady state levels of IFN-γ RNA (IFN-γ [7]): did not change | TNF-α (TNF-α [8]): significant reduction | IL-10 (IL-10 [9]): significant reduction | IL-6 (IL-6): significant reduction | dose response difference in inflammation and fibrosis ([10]; between the 50 mg/kg/day and 100 mg/kg/day treatment groups): approximately 15% | inflammation and resulting fibrosis ([10]; once daily 50 mg/kg/day or 100 mg/kg/day): significantly decreased | time to maximum serum concentration (after dosing): within an hour | terminal half-life (in vivo): approximately 2 hours | T1/2 in kidney tissue ([11]; kidney tissue): 49 min | T1/2 in liver tissue ([11]; liver tissue): 46 min | T1/2 in lung tissue ([11]; lung tissue): 67 min | half-life ([12]; following from the clearance): less than 2 hours | drug clearance ([12]; oral administration): approximately 30 ml/min/kg | terminal half-life [13]: approximately 2.5 hours | time to maximum levels in blood ([13]; fasting): 0.5 h | time to maximum levels in blood ([13]; post food): 2 h | most common side effects ([14]; 10% or more greater than placebo): nausea, dyspepsia and rash | AST/ALT elevation, incidence ([14]; in vivo): < 3% | bilirubin elevation, incidence ([14]; very rarely): 0.1%
